Reference: the NIST ThermoML archive (doi:10.1021/je200150r)
± gives the expanded uncertainty stated by the source.

Key:
[1] = 101 kPa, Liquid; for viscosity: Capillary tube (Ostwald / Ubbelohde) method; for mass density: Pycnometric method
[2] = xn = mol fraction of the nth substance listed; details: 101 kPa, Liquid, x2 = 0; for viscosity: Capillary tube (Ostwald / Ubbelohde) method; for mass density: Pycnometric method

Row | SMILES | viscosity ([1]; 303.15 K) [mPa·s] | mass density ([1]; 303.15 K) [kg/m3] | viscosity ([1]; 308.15 K) [mPa·s] | mass density ([1]; 308.15 K) [kg/m3] | viscosity ([1]; 313.15 K) [mPa·s] | mass density ([1]; 313.15 K) [kg/m3] | viscosity ([1]; 318.15 K) [mPa·s] | mass density ([1]; 318.15 K) [kg/m3] | viscosity ([1]; 323.15 K) [mPa·s] | mass density ([1]; 323.15 K) [kg/m3] | viscosity ([2]; 303.15 K) [mPa·s] | mass density ([2]; 303.15 K) [kg/m3] | viscosity ([2]; 308.15 K) [mPa·s] | mass density ([2]; 308.15 K) [kg/m3] | viscosity ([2]; 313.15 K) [mPa·s] | mass density ([2]; 313.15 K) [kg/m3] | viscosity ([2]; 318.15 K) [mPa·s] | mass density ([2]; 318.15 K) [kg/m3] | viscosity ([2]; 323.15 K) [mPa·s] | mass density ([2]; 323.15 K) [kg/m3]
1 | OCc1ccccc1 [benzenemethanol] | 4.689 ± 0.059 | 1037.6 ± 0.9 | 4.058 ± 0.051 | 1033.8 ± 0.9 | 3.531 ± 0.044 | 1030.1 ± 0.9 | 3.103 ± 0.039 | 1026.3 ± 0.9 | 2.747 ± 0.035 | 1022.5 ± 0.9 | – | – | – | – | – | – | – | – | – | –
2 | CCC(C)=O [butanone] | 0.362 ± 0.005 | 794 ± 0.9 | 0.345 ± 0.005 | 788.8 ± 0.9 | 0.33 ± 0.004 | 783.5 ± 0.9 | 0.316 ± 0.004 | 778.3 ± 0.9 | 0.303 ± 0.004 | 773 ± 0.9 | – | – | – | – | – | – | – | – | – | –
3 | CCC(C)=O [butanone] + OCc1ccccc1 | – | – | – | – | – | – | – | – | – | – | 0.362 ± 0.005 | 794 ± 0.9 | 0.345 ± 0.005 | 788.8 ± 0.9 | 0.33 ± 0.004 | 783.5 ± 0.9 | 0.316 ± 0.004 | 778.3 ± 0.9 | 0.303 ± 0.004 | 773 ± 0.9
